Patent US20240199676A1, “ANTIVIRAL COMPOUNDS AND METHODS OF MAKING AND USING THE SAME” (Gilead Sciences, Inc., priority 2022, published 2024)

Columns and labels:
[1] = GI S9 stability (Ex. Z), cyno intestinal S9; format: in vitro ADME; conditions: cynomolgus monkey, pooled intestinal S9 fractions; cyno intestinal S9, 1.0 mg/mL protein, 2 μM substrate, pH 7.4; read-out: GIS9 Cyno T½ (per Ex. Z)
How it was run: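 Pooled intestinal S9 at 1.0 mg/mL protein in PBS, pH 7.4, with substrate at 2 μM final, sampled at 0–120 min and quenched in methanol/acetonitrile containing labetalol. Remaining parent quantified by LC-MS peak area ratio. Half-life from first-order exponential decline fit.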

[2] = tested on: Respiratory syncytial virus recombinant with luciferase (RSV-Luc5) in NHBE cells; experiment: NHBE RSV-Luc5 384-well Assay (RSV FLUC NHBE 384 V2, Ex. W); format: cell-based; conditions: human respiratory syncytial virus, 72 h, read-out: EC50 RSV FLUC NHBE 384 V2 (per Ex. W)
How it was run: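 NHBE cells (passage 2) seeded at 5,000 cells/well onto pre-spotted compounds, 10-point 1:3 dilutions, then infected with RSV-Luc5 at MOI 1. After 3 days at 37 °C, luciferase luminescence was read with One-Glo. Data normalized to remdesivir (0%) and DMSO (100% replication); EC50 from non-linear regression.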

[3] = tested on: Respiratory syncytial virus recombinant with luciferase (RSV-Luc5) in NHBE cells; experiment: NHBE RSV-Luc5 384-well Assay (EC50 RSVFLUC NHBE-384, Ex. U); format: cell-based; conditions: human respiratory syncytial virus, 72 h, read-out: EC50 RSV FLUC NHBE 384 (per Ex. U)
Excerpt: Example U. NHBE RSV-Luc5 384-well Assay (EC50 RSVFLUC NHBE-384)
Normal Human Bronchial Epithelial (NHBE) cells were purchased from Lonza (Walkersville, MD Cat #CC2540) and maintained in BEGM Bronchial Epithelial Cell Growth Medium BulletKit (Lonza CC-3170).
Cells were thawed, expanded, and were used for experiments at passage 2. Respiratory syncytial virus recombinant with luciferase (RSV-Luc5) (≥1×10^7 Infectious Units/ml (IU/ml) determined by TCID50) was purchased from Microbiologics (Saint Cloud, MN). Viral replication was determined in NHBE cells in the following manner.
Compounds are prepared in 100% DMSO in 384-well polypropylene plates (Greiner, Monroe, NC, Cat #784201) with 8 compounds per plate in grouped replicates of 4 at 10 serially diluted concentrations (1:3). The serially diluted compounds were transferred to low dead volume Echo plates (Labcyte, Sunnyvale, CA, Cat #LP-0200).
The test compounds were spotted to 384-well assay plates (Greiner, Monroe, NC, Cat#781091) at 200 nL per well. NHBE cells were harvested and suspended in BEGM Bronchial Epithelial Cell Growth Medium BulletKit and seeded to the pre-spotted assay plates at 5,000 cells per well in 30 μL. RSV-Luc5 virus was diluted in BEGM Bronchial Epithelial Cell Growth Medium BulletKit at 500,000 Infectious Units (IU) per mL and 10 μL per well was added to the assay plates containing cells and compounds, for an MOI of 1. The assay plates were incubated for 3 days at 37° C. and 5% CO2. At the end of incubation, One-Glo reagent (Promega, Madison, WI, Cat #E6120) was prepared. The assay plates and One-Glo reagent were equilibrated to room temperature for at least 15 minutes. 40 μL per well of One-Glo reagent was added and the plates were incubated at room temperature for 15 minutes before reading the luminescence signal on an EnVision multimode plate reader (Perkin Elmer, Waltham, MA). Remdesivir was used as positive control and DMSO was used as negative control. Values were normalized to the positive and negative controls (as 0% and 100% replication, respectively) and data was fitted using non-linear regression analysis by Gilead's dose response tool. The EC50 value for each compound was defined as the concentration reducing the viral replication by 50%.

Structure (SMILES)	half-life at 2 μM [1]	EC50 [2]	EC50 [3]
CC(C)(C)CC(=O)OC[C@@]1(C#N)O[C@@H](c2ccc3c(N)ncnn23)[C@H](O)[C@@H]1O [Compound 13, ((2R,3S,4R,5S)-5-(4-aminopyrrolo[2,1-f][1,2,4]triazin-7-yl)-2-cyano-3,4-dihydroxytetrahydrofuran-2-yl)methyl 3,3-dimethylbutanoate]	408 min	8.59 µM	10.9 µM
CC(=O)OC[C@@]1(C#N)O[C@@H](c2ccc3c(N)ncnn23)[C@H](O)[C@@H]1O [Compound 4, ((2R,3S,4R,5S)-5-(4-aminopyrrolo[2,1-f][1,2,4]triazin-7-yl)-2-cyano-3,4-dihydroxytetrahydrofuran-2-yl)methyl acetate]	9 min	10.7 µM	11 µM
CC1(C(=O)OC[C@@]2(C#N)O[C@@H](c3ccc4c(N)ncnn34)[C@H](O)[C@@H]2O)CC1 [Compound 15, ((2R,3S,4R,5S)-5-(4-aminopyrrolo[2,1-f][1,2,4]triazin-7-yl)-2-cyano-3,4-dihydroxytetrahydrofuran-2-yl)methyl 1-methylcyclopropane-1-carboxylate]	123 min	8.77 µM	8.8 µM
CCC(CC)C(=O)Nc1ncnn2c([C@@H]3O[C@](C#N)(COC(=O)C(CC)CC)[C@@H](O)[C@H]3O)ccc12 [Compound 11, ((2R,3S,4R,5S)-2-cyano-5-(4-(2-ethylbutanamido)pyrrolo[2,1-f][1,2,4]triazin-7-yl)-3,4-dihydroxytetrahydrofuran-2-yl)methyl 2-ethylbutanoate]	19 min	24.6 µM	25.2 µM
CC(C)CC(=O)OC[C@@]1(C#N)O[C@@H](c2ccc3c(N)ncnn23)[C@H](O)[C@@H]1O [Compound 3, ((2R,3S,4R,5S)-5-(4-aminopyrrolo[2,1-f][1,2,4]triazin-7-yl)-2-cyano-3,4-dihydroxytetrahydrofuran-2-yl)methyl 3-methylbutanoate]	17 min	8.55 µM	8.07 µM
CCC(=O)OC[C@@]1(C#N)O[C@@H](c2ccc3c(N)ncnn23)[C@H](O)[C@@H]1O [Compound 5, ((2R,3S,4R,5S)-5-(4-aminopyrrolo[2,1-f][1,2,4]triazin-7-yl)-2-cyano-3,4-dihydroxytetrahydrofuran-2-yl)methyl propionate]	6 min	7.78 µM	8.89 µM
